Measured values as given in US20130303509A1, “NAMPT INHIBITORS” (AbbVie Inc., priority 2012, published 2013).

tested on: PC3 cells; assay: NAMPT Cell Proliferation Assay; type: cell-based; details: Homo sapiens, PC-3, 120 h, 5 days incubation, cell viability by Cell Titer Glo
How it was run: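 Five-day CellTiter-Glo viability readout in PC3 cells grown in RPMI/10% heat-inactivated FBS. Compounds added after overnight attachment as a 10-fold dilution series, […]. Percent inhibition fitted to sigmoidal dose-response to derive IC50.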

Row | SMILES | IC50 [nM]
1 | O=C(Nc1ccc(O[C@@H]2CCN(C(=O)C3CCOCC3)C2)cc1)C1CN(c2cccnn2)C1 [Example 487, 1-(pyridazin-3-yl)-N-(4-{[(3R)-1-(tetrahydro-2H-pyran-4-ylcarbonyl)pyrrolidin-3-yl]oxy}phenyl)azetidine-3-carboxamide] | 72
2 | CC(C)Cn1cc(-c2cc(C(=O)N[C@@H]3CCN(c4ccnnc4)C3)cs2)cn1 [Example 624, 5-[1-(2-methylpropyl)-1H-pyrazol-4-yl]-N-[(3R)-1-(pyridazin-4-yl)pyrrolidin-3-yl]thiophene-3-carboxamide] | > 10000
3 | O=C(Nc1ccc(OC2CCN(C(=O)c3cccc(C(F)(F)F)c3)CC2)cc1)C1CN(c2ccnnc2)C1 [Example 285, 1-(pyridazin-4-yl)-N-[4-({1-[3-(trifluoromethyl)benzoyl]piperidin-4-yl}oxy)phenyl]azetidine-3-carboxamide] | 69.2
4 | O=C(Nc1ccc(C2CCN(C(=O)CC3CCOCC3)CC2)cc1)[C@H]1CCN(c2cccnn2)C1 [Example 312, (3S)-1-(pyridazin-3-yl)-N-{4-[1-(tetrahydro-2H-pyran-4-ylacetyl)piperidin-4-yl]phenyl}pyrrolidine-3-carboxamide] | 21.7
5 | O=C(Nc1ccc(O[C@@H]2CCN(C(=O)c3cccc(OC(F)(F)F)c3)C2)cc1)C1CN(c2cccnn2)C1 [Example 504, 1-(pyridazin-3-yl)-N-[4-({(3R)-1-[3-(trifluoromethoxy)benzoyl]pyrrolidin-3-yl}oxy)phenyl]azetidine-3-carboxamide] | 7.75
6 | COCC(=O)N1CCC(c2ccc(NC(=O)C3CN(c4cccnc4C)C3)cc2)CC1 [Example 195, N-{4-[1-(methoxyacetyl)piperidin-4-yl]phenyl}-1-(2-methylpyridin-3-yl)azetidine-3-carboxamide] | 701
7 | CC(C)C(=O)N1CCC(Oc2ccc(NC(=O)[C@H]3CCN(c4cccnc4)C3)cc2)CC1 [Example 12, (3S)-N-(4-{[1-(2-methylpropanoyl)piperidin-4-yl]oxy}phenyl)-1-(pyridin-3-yl)pyrrolidine-3-carboxamide] | 84.4
8 | O=C(Nc1ccc(C2CCN(C(=O)Cc3ccc(OC(F)(F)F)cc3)CC2)cc1)C1CN(c2ccnnc2)C1 [Example 561, 1-(pyridazin-4-yl)-N-[4-(1-{[4-(trifluoromethoxy)phenyl]acetyl}piperidin-4-yl)phenyl]azetidine-3-carboxamide] | 62.2
9 | O=C(Nc1ccc(C2CCN(C(=O)c3ccccc3)CC2)cc1F)C1CN(c2ccnnc2)C1 [Example 869, N-[4-(1-benzoylpiperidin-4-yl)-2-fluorophenyl]-1-(pyridazin-4-yl)azetidine-3-carboxamide] | 1.98
10 | O=C(Nc1ccc(C2CCN(C(=O)CC3CC3)CC2)cc1)C1CN(c2cccnn2)C1 [Example 427, N-{4-[1-(cyclopropylacetyl)piperidin-4-yl]phenyl}-1-(pyridazin-3-yl)azetidine-3-carboxamide] | 2.03
11 | O=C(Nc1ccc(O[C@@H]2CCN(C(=O)Cc3ccc(F)cc3F)C2)cc1)C1CN(c2cccnn2)C1 [Example 496, N-[4-({(3R)-1-[(2,4-difluorophenyl)acetyl]pyrrolidin-3-yl}oxy)phenyl]-1-(pyridazin-3-yl)azetidine-3-carboxamide] | 6.3
12 | CC(C)(C)n1cc(-c2ccc(NC(=O)[C@H]3CCN(c4cccnn4)C3)cc2)cn1 [Example 773, (3S)-N-[4-(1-tert-butyl-1H-pyrazol-4-yl)phenyl]-1-(pyridazin-3-yl)pyrrolidine-3-carboxamide] | 85.7
13 | CC(C)(C)OC(=O)N1CCC(Oc2ccc(NC(=O)[C@@H]3CCN(c4cccnc4)C3)cc2)CC1 [Example 9, tert-butyl 4-[4-({[(3R)-1-(pyridin-3-yl)pyrrolidin-3-yl]carbonyl}amino)phenoxy]piperidine-1-carboxylate] | 739
14 | CC(C)Cn1cc(-c2ccc(C(=O)N[C@H]3CCN(c4ccnnc4)C3)s2)cn1 [Example 607, 5-[1-(2-methylpropyl)-1H-pyrazol-4-yl]-N-[(3S)-1-(pyridazin-4-yl)pyrrolidin-3-yl]thiophene-2-carboxamide] | 7650
15 | CC(C)(C)OC(=O)N1CCC(c2ccc(C(=O)NC3CN(c4cccnn4)C3)s2)CC1 [Example 808, tert-butyl 4-(5-{[1-(pyridazin-3-yl)azetidin-3-yl]carbamoyl}thiophen-2-yl)piperidine-1-carboxylate] | 41.1
16 | O=C(Nc1ccc(OC2CN(C(=O)CC(F)(F)F)C2)cc1)C1CN(c2ccnnc2)C1 [Example 258, 1-(pyridazin-4-yl)-N-(4-{[1-(3,3,3-trifluoropropanoyl)azetidin-3-yl]oxy}phenyl)azetidine-3-carboxamide] | 309
17 | O=C(Nc1ccc(O[C@@H]2CCN(C(=O)c3ccccc3F)C2)cc1)C1CN(c2cccnn2)C1 [Example 514, N-(4-{[(3R)-1-(2-fluorobenzoyl)pyrrolidin-3-yl]oxy}phenyl)-1-(pyridazin-3-yl)azetidine-3-carboxamide] | 0.32
18 | O=C(Nc1ccc(S(=O)(=O)C2CCN(C(=O)c3cccc(C(F)(F)F)c3)CC2)cc1)C1CN(c2cccnn2)C1 [Example 584, 1-(pyridazin-3-yl)-N-[4-({1-[3-(trifluoromethyl)benzoyl]piperidin-4-yl}sulfonyl)phenyl]azetidine-3-carboxamide] | 87.2

Row | SMILES | IC50 [nM]
19 | Cc1cc(C)cc(C(=O)N2CCC(c3ccc(NC(=O)C4CN(c5cccnn5)C4)cc3)CC2)c1 [Example 361, N-{4-[1-(3,5-dimethylbenzoyl)piperidin-4-yl]phenyl}-1-(pyridazin-3-yl)azetidine-3-carboxamide] | 2.77
20 | Cn1nc(C2CC2)cc1-c1ccc(NC(=O)C2CN(c3cccnn3)C2)cc1 [Example 805, N-[4-(3-cyclopropyl-1-methyl-1H-pyrazol-5-yl)phenyl]-1-(pyridazin-3-yl)azetidine-3-carboxamide] | 65
21 | CO[C@@H](C(=O)N1CCC(c2ccc(NC(=O)[C@H]3CCN(c4cccnn4)C3)cc2)CC1)c1ccccc1 [Example 634, (3S)-N-(4-{1-[(2R)-2-methoxy-2-phenylacetyl]piperidin-4-yl}phenyl)-1-(pyridazin-3-yl)pyrrolidine-3-carboxamide] | 9.22
22 | O=C(NCC(=O)N1CCC(c2ccc(NC(=O)C3CN(c4cccnn4)C3)cc2)CC1)c1ccco1 [Example 408, N-(4-{1-[N-(furan-2-ylcarbonyl)glycyl]piperidin-4-yl}phenyl)-1-(pyridazin-3-yl)azetidine-3-carboxamide] | 29.9
23 | O=C(Nc1ccc(C2CCN(C(=O)CC(F)(F)F)CC2)cc1)C1CN(c2cccnc2)C1 [Example 122, 1-(pyridin-3-yl)-N-{4-[1-(3,3,3-trifluoropropanoyl)piperidin-4-yl]phenyl}azetidine-3-carboxamide] | 0.61
24 | O=C(Nc1ccc(C2CCN(C(=O)c3ccsc3)CC2)cc1)C1CN(c2ccnnc2)C1 [Example 530, 1-(pyridazin-4-yl)-N-{4-[1-(thiophen-3-ylcarbonyl)piperidin-4-yl]phenyl}azetidine-3-carboxamide] | 2.02
25 | O=C(Nc1ccc(C2CCN(C(=O)CCc3ccccc3)CC2)cc1)C1CN(c2cccnn2)C1 [Example 422, N-{4-[1-(3-phenylpropanoyl)piperidin-4-yl]phenyl}-1-(pyridazin-3-yl)azetidine-3-carboxamide] | 1.12
26 | CCOCC(=O)N1CCC(Oc2ccc(NC(=O)C3CN(c4cccnc4)C3)cc2)CC1 [Example 44, N-(4-{[1-(ethoxyacetyl)piperidin-4-yl]oxy}phenyl)-1-(pyridin-3-yl)azetidine-3-carboxamide] | 5.47
27 | O=C(Nc1ccc(OC2CCN(C(=O)C3CCOC3)CC2)cc1)C1CN(c2ccnnc2)C1 (centres unmarked) [Example 298, 1-(pyridazin-4-yl)-N-(4-{[1-(tetrahydrofuran-3-ylcarbonyl)piperidin-4-yl]oxy}phenyl)azetidine-3-carboxamide] | 97.9
28 | CC1(C(=O)N2CCC(c3ccc(NC(=O)C4CN(c5cccnc5)C4)cc3)CC2)CC1 [Example 110, N-(4-{1-[(1-methylcyclopropyl)carbonyl]piperidin-4-yl}phenyl)-1-(pyridin-3-yl)azetidine-3-carboxamide] | 0.26
29 | O=C(Nc1ccc(C2CCN(C(=O)Cc3ccccc3Cl)CC2)cc1)C1CN(c2cccnn2)C1 [Example 369, N-(4-{1-[(2-chlorophenyl)acetyl]piperidin-4-yl}phenyl)-1-(pyridazin-3-yl)azetidine-3-carboxamide] | 2.14
30 | CN1CCC(CC(=O)N2CCC(c3ccc(C(=O)N[C@H]4CCN(c5cccnn5)C4)s3)CC2)CC1 [Example 767, 5-{1-[(1-methylpiperidin-4-yl)acetyl]piperidin-4-yl}-N-[(3S)-1-(pyridazin-3-yl)pyrrolidin-3-yl]thiophene-2-carboxamide] | 1280
31 | CSCCC(=O)N1CCC(c2ccc(NC(=O)[C@H]3CCN(c4cccnn4)C3)cc2)CC1 [Example 715, (3S)-N-(4-{1-[3-(methylsulfanyl)propanoyl]piperidin-4-yl}phenyl)-1-(pyridazin-3-yl)pyrrolidine-3-carboxamide] | 11.8
32 | O=C(NC1CN(c2cccnn2)C1)c1ccc(C2CCN(C(=O)c3ccc(F)cc3)CC2)s1 [Example 815, 5-[1-(4-fluorobenzoyl)piperidin-4-yl]-N-[1-(pyridazin-3-yl)azetidin-3-yl]thiophene-2-carboxamide] | 185
33 | O=C(Nc1ccc(C2CCN(C(=O)C3CC3)CC2)cc1)C1CN(c2cccnn2)C1 [Example 411, N-{4-[1-(cyclopropylcarbonyl)piperidin-4-yl]phenyl}-1-(pyridazin-3-yl)azetidine-3-carboxamide] | 7.15
34 | CCC(C)CN1CCC(Oc2ccc(NC(=O)C3CN(c4cccnc4)C3)cc2)CC1 (centres unmarked) [Example 80, N-(4-{[1-(2-methylbutyl)piperidin-4-yl]oxy}phenyl)-1-(pyridin-3-yl)azetidine-3-carboxamide] | 25.5
35 | CC[C@H](C(=O)N1CCC(c2ccc(NC(=O)[C@H]3CCN(c4cccnn4)C3)cc2)CC1)c1ccccc1 [Example 632, (3S)-N-(4-{1-[(2S)-2-phenylbutanoyl]piperidin-4-yl}phenyl)-1-(pyridazin-3-yl)pyrrolidine-3-carboxamide] | 8.81
